According to patent publication US20130252987A1, “METHOD OF REGULATING PLASMA LIPOPROTEINS” (MCMASTER UNIVERSITY, priority 2010, published 2013):
Blank lines part the entries; values can stand above or below the compound they belong to.

Key:
[1] = system: RETN (human resistin gene); experiment: resistin siRNA transfection of HepG2 cells; type: cell-based; details: 10 nM siRNA, 24 or 48 hours
Protocol: HepG2 cells were seeded 200,000 cells per well in a 6-well plate in 2300 uL of 10% FBS DMEM with antibiotics. Awaiting transfection, the cells were placed at 37° C. and 5% CO2. Next, 300 ng of siRNA against RETN (human resistin gene), with the sequence 5′[…] (SEQ ID NO: 5), purchased from Qiagen, MD, was diluted in 100 uL of serum free DMEM which yielded a final concentration of 10 nM once added to cells. 12 uL of HiPerfect Transfection reagent (Qiagen) was also added to the siRNA and mixed by pipetting. The siRNA mixture was allowed to form transfection complexes by incubation at room temperature for 7 minutes. The complexes were then added drop wise to the cells and incubated at 37° C. and 5% CO2 for 24 or 48 hours before harvest. Transfection efficiency was quantitatively measured by the fluorescently labeled scrambled negative control siRNA (Qiagen). siRNA knockdown efficiency was measured by positive control siGAPDH (Qigen) at the transcript and protein levels.

HepG2 cells [2] = experiment: apoB and apolipoprotein expression and secretion, immunoprecipitation and Western blot; type: cell-based, human; details: lactacystin 10 μM, 24 hours
Protocol: During experiments in which HepG2 cells were treated with human recombinant resistin (Calbiochem, UK) the media was changed to 1% FBS-containing DMEM. […] In separate experiments, cells were treated with the fatty acid, oleate (100 μM) (Sigma, ON) for 24 hours, with or without human resistin (50 ng/mL) for 24 hours. In other experiments, cells were treated with the 10 μM lactacystin (Cayman Chemical, Ann Arbor, Mich.) for 24 hours to assess intracellular proteosome-dependent apoB protein degradation.
Horseradish peroxidase-conjugated antibodies (BioRad, Hercules, Calif.) were used as secondary antibodies.
All of the experiments to follow were performed three times and representative results are shown. […] Immunoprecipitation on cell lysates and media, followed by Western blots to detect the cellular expression and secretion of human apoB protein were then performed. The constitutively expressed cellular proteins, beta-actin and albumin were used as internal immunoblot controls to confirm equal protein loading in the apoB immunoblots of cell lysates and media, respectively. […] Treatment with 25 ng/mL resistin further stimulated apoB secretion by approximately 250% compared with untreated cells (FIG. 1A).

HepG2 cells [3] = experiment: immunoblotting for LDL receptor and PCSK9 in HepG2 cells
Protocol: Cells were propagated in 10% FBS-containing DMEM supplemented with 1% penicillin-streptomycin and 0.06% L-glutamine (584 mg/L) at 37° C., 5% CO2. During treatment experiments with human recombinant resistin (Calbiochem, UK) and/or lovastatin (Sigma, Mo.), the media was changed to 1% FBS-containing DMEM. All of the experiments to follow were performed at least three times and representative results are shown. Cells were stimulated with resistin at various doses (0, 10, 25, 50, and 100 ng/mL) for 24 hours or with a single dose at 50 ng/mL resistin. In other experiments, the microsomal triglyceride transfer protein (MTP) inhibitor, CP-346086, was administered at 1.3 nM, either alone or together with resistin (50 ng/mL) for 24 hours. Lovastatin was administered at 1 to 5 μM for 24 hours to stimulate the cells, either alone or in combination with resistin (50 ng/mL). Unless otherwise indicated, all experiments were performed in triplicate in three independent experiments.
Cell lysates collected with RIPA buffer (50 mM Tris, 150 mM sodium chloride, 1% NP-40, 12 mM sodium deoxycholate, 3.5 mM SDS, pH 7.4) and protease inhibitor cocktail (Roche Diagnostics, QC) were analyzed for human LDL receptor and PCSK9 as previously described (Rashid et al. Proc Nall Acad Sci U S A 2005; 102:5374-9). Equivalent amounts of total protein, determined by Bradford reaction was subjected to sodium dodecyl sulfate polyacrylamide gel electrophoresis (SDS-PAGE), transferred onto nitrocellulose membranes (BioRad, CA) and immunoblotted using antibodies against the LDL receptor (Fitzgerald International, CA) and PCSK9 (Cayman Chemicals, MI). Horseradish peroxidase-conjugated antibodies (BioRad, CA) were used as secondary antibodies. Immunoreactive bands were visualized with a chemiluminescence kit (PerkinElmer Life Sciences, MA). The blots were exposed to KODAK Biomax films, and the signal was quantified by densitometry using Quantity One version 4.6.7. software (Bio Rad, CA).
All of the experiments were performed at least three times and representative results are shown. Dose-response experiments were performed in HepG2 cells with 0, 10, 25, 50, 75 and 100 ng/mL of human resistin for 24 hours. Western blots were then performed on cell lysates to detect the cellular expression of LDL receptor protein.

HepG2 cells [4] = experiment: cell viability, tryphan blue staining; type: cell-based, human; details: 1.3 nM
Protocol: Cell viability was determined with 0.4% tryphan blue (Sigma-Aldrich, ON) staining and calculated using the following formula: % Cell Viability=(number of unstained (living) cells/Total number of cells)×100.
The next question was whether this amount of human resistin is toxic to hepatocytes. Tryphan blue staining of HepG2 cells upon 50 ng/mL of resistin treatment to determine cell viability was performed.

HepG2 cells [5] = experiment: real-time quantitative PCR of mRNA expression; type: cell-based, human; details: CP-346086 1.3 nM, 24 hours
Protocol: Total RNA was isolated from cell lysates (RNeasy Mini Kit, Qiagen, Germantown, Md.) and used as a template for cDNA synthesis (QuantiTech Reverse Transcription Kit, Qiagen, Germantown, Md.). Quantitative real-time PCR was performed using an Applied Biosystems 7300 Real Time PCR system (Carlsbad, Calif.) according to the manufacturer's instructions and with the SYBR green master kit (Qiagen, Germantown, Md.). Primers for the real-time PCR internal control gene cyclophilin A (sense, 5′-[…]-3′ (SEQ ID NO:3); antisense, 5′-[…]-3′ (SEQ ID NO:4)) were synthesized (IDT, Coralville, Iowa). Primers for succinate degydrogenase (SDH) (another real-time PCR internal control gene), apoB, microsomal triglyceride transfer protein (MTP), Srebp1, Srebp2, acetyl-coA carboxylase (ACC), HMG-coA reductase, HMG-coA synthase, squalene synthase (SS), the LDL receptor, PCSK9, fatty acid synthase (FAS), […] (SCD), DGAT1 and DGAT2 were purchased (proprietary sequences not available) (Qiagen, Germantown, Md.). The values reported for each mRNA were corrected to the cyclophilin A and SDH mRNA values.
Total RNA was isolated from cell lysates (RNeasy Mini Kit, Qiagen, MD) and used as a template for cDNA synthesis (QuantiTech Reverse Transcription Kit, Qiagen, MD). Quantitative real-time PCR was performed using an Applied Biosystems 7300 Real-Time PCR system (Carlsbad, Calif.) according to the manufacturer's instructions and with the SYBR green kit (Qiagen, MD). Primers for the real-time PCR internal control gene cyclophilin A, as identified in Example 1, were synthesized (IDT, IA). Primers for succinate dehydrogenase (SDH) (another real-time PCR internal control gene), SREBP2, HMG-CoA reductase, the LDL receptor and PCSK9 were purchased (proprietary sequences not available) (Qiagen, MD). The values reported for each mRNA were corrected to the cyclophilin A and SDH mRNA values.

[6] = CP-346086 1.3 nM with resistin 50 ng/mL, 24 hours

Compound: Resistin siRNA: siRNA against RETN (human resistin gene), sequence 5′CCCTAATATTTAGGGCAATAA (SEQ ID NO: 5), Qiagen (listed as DNA, chemistry not given here)
cellular LDL receptor levels [1]: very effective in increasing | cellular PCSK9 levels [1]: reduction | cellular protein levels of resistin [1]: very effective in reducing | expression of apoB [1]: reducing the expression

Compound: CC(=O)N[C@@H](CSC(=O)[C@]1([C@@H](O)C(C)C)NC(=O)[C@H](C)[C@@H]1O)C(=O)O [lactacystin, reference compound]
cellular expression and secretion of apoB (HepG2 cells [2]): increase

hepatocyte LDL receptor expression (HepG2 cells [3]; lovastatin 5 μM): increase
Compound: CC[C@H](C)C(=O)O[C@H]1C[C@@H](C)C=C2C=C[C@H](C)[C@H](CC[C@@H]3C[C@@H](O)CC(=O)O3)[C@H]21 [lovastatin, reference compound]

Compound: O=C(Nc1ccc2c(c1)CCN(Cc1ncn[nH]1)C2)c1ccccc1-c1ccc(C(F)(F)F)cc1 [CP-346086, reference compound]
cell viability (HepG2 cells [4]): did not reduce cell viability | HMG-coA reductase mRNA expression (HepG2 cells [5]): reduction | SREBP2 mRNA expression (HepG2 cells [5]): reduction | effect on LDL receptor protein levels observed with resistin treatment (HepG2 cells [3]; [6]): reversed the decline | effect on PCSK9 protein levels induced by resistin (HepG2 cells [3]; [6]): reversed the increase
